Data on six compounds can be found in US9238815B2 (priority 2009, dated 2016).

The test system of series [1] is WSN-Ren virus. Type of series: cell-based, influenza A/WSN/33 virus.
Series [2] concerns WSN-Ren virus. Type of series: cell-based, influenza A/WSN/33 virus. This is another data set of the same source.
The subject of series [3] is influenza A/WSN/33 virus. Description: Small molecule inhibition of virus growth in A549 cells, plaque assay. Type of series: cell-based.
Series [4] deals with influenza A/WSN/33 virus. The series is classed as cell-based.
Series [5] relates to pseudotyped lentivirus particles bearing influenza virus HA (WSN). Type of series: cell-based.
A further series has as its system influenza virus. The series is classed as cell-based.

Turning to “HIST3H3 (guide TGAGAGGTTGCGCAACGTTCA; target site or template, no part of the molecule; target sequence, further chemistry not given here)”, in the series on WSN-Ren virus [1], the “Avg Score 12 h” value is 0.6254, the “Avg Score 24 h” value was found to be 0.5921 and the “Avg Score 36 h” value came to 0.4817.

`CCc1cc(-c2n[nH]c(C)c2-c2ccc3c(c2)OCCO3)c(O)cc1O` [CCT018159, 4-(4-(2,3-Dihydro-1,4-benzodioxin-6-yl)-5-methyl-1H-pyrazol-3-yl)-6-ethylresorcinol]: the WSN-Ren virus growth entry in the series with WSN-Ren virus [2] was “reduce influenza virus growth”.

Consider `COc1ccc(S(=O)(=O)N(CCO)c2ccccc2CN(C)C/C=C/c2ccc(Cl)cc2)cc1` [KN-93], for which the “influenza virus growth by plaque assay” value in the series with influenza A/WSN/33 virus [3] (20 μM) is given as “impairs influenza virus growth”. Further, in the series with MDCK cells, the “cell viability (ATP levels)” value is reported as “without affecting cell viability”. Moreover, the “A/WSN/33 influenza viral replication (viral titers)” value with influenza A/WSN/33 virus [4] is on record as “inhibits A/WSN/33 influenza viral replication in a dose-dependent manner”.

On to `O=c1[nH]c2ccccc2c(O)c1-c1nc2ccccc2[nH]1` [FGF/VEGF Receptor Inhibitor, 4-Hydroxy-3-benzimidazol-2-ylhydroquinolin-2-one], for which, in the series on WSN-Ren virus [2], the WSN-Ren virus growth entry was “reduce influenza virus growth”.

As to `COc1cc([C@@H]2c3cc4c(cc3[C@H](O)[C@H]3COC(=O)[C@H]23)OCO4)cc(OC)c1OC` [Podophyllotoxin], the WSN-Ren virus growth result in the series on WSN-Ren virus [2] was “reduce influenza virus growth”.

In the case of `COc1cc2c(O)c3c(c(-c4ccc5c(c4)OCO5)c2cc1OC)C(=O)OC3` [Diphyllin], the influenza virus entry result in series [5] is reported as “inhibits influenza virus entry”. In addition, the “inhibition of influenza A/WSN/33 virus” value in the series with influenza A/WSN/33 virus [3] (A549 cells, MOI=1, FIG. 8b) was “Dose-dependent inhibition”. For the same compound, the “influenza virus inhibitory activity in high-throughput screen” value in the series with influenza virus is recorded as “having influenza virus inhibitory activity”.
